The text below walks through data of patent US9169285B2, “Methods for purifying steviol glycosides and uses of the same” (The Coca-Cola Company, priority 2011, dated 2015).

The subject of one assay is one experienced panelist. Nature of the assay: Taste evaluation of Reb X against Reb A and Reb D, controlled multi-sip and swallow taste method. In kind it is in vivo, human. The note with it: 500 ppm in citric buffer (pH 3.22). How it is done:
The taste properties of a sample of Reb X were studied against Rebaudioside A (Reb A) and Rebaudioside D (Reb D) samples. Reb A was obtained from Cargill (lot #1040) and Reb-D was obtained from PureCircle (lot #Nov. 3, 2008).
The samples were prepared at 500 ppm for sweetness evaluation by adding moisture compensated mass into a 100 mL sample of carbon-treated water and citric buffer solutions.
Citric buffer was prepared by mixing 1.171 g/L citric acid, 0.275 g/L sodium citrate and 0.185 g/L sodium benzoate with carbon-treated water, with a final pH of 3.22. The mixtures were moderately stirred at room temperature. The Reb X sample was then evaluated against the two control Reb A and Reb D samples in water and citric buffer at room temperature (RT) and at 4° C. in an ice bath by one experienced panelist for any tasting quality determinations using the controlled, multi-sip and swallow taste method shown below:
1. Take first sip (˜1.8 mL) of control and swallow. Wait for 15-25 sec, then take second sip of control and wait for 15-25 sec.
2. Take first sip of the experimental sample, wait for 15-25 sec, then take second sip. Compare to second sip of control.
3. Repeat steps #1 and #2 for the third and fourth sips of the control and experimental samples to confirm the initial finding.

A further assay relates to panelists. Nature of the assay: Sensory properties of steviol glycosides in acidified water (pH 3.0) at 500 mg/L, 20 panelists. The conditions noted are these: 500 ppm (sucrose 10,000 ppm); for Overall evaluation: Satisfactory, number of panelists / Quality of sweet taste (comment) / Quality of sweet taste: number of panelists giving the comment: acidified water pH 3.0, 20 panelists; for Astringent taste: number of panelists detected the attribute / Bitter taste: number of panelists detected the attribute / Licorice taste: number of panelists detected the attribute / Sweet Aftertaste: number of panelists detected the attribute: acidified water pH 3.0 by phosphoric acid, 20 panelists. In kind it is in vivo, human. The protocol: The sensory properties of Reb X were evaluated in acidified water (pH 3.0 by phosphoric acid) at 500 mg/L concentration by 20 panelists.

Consider `C=C1C[C@@]23CC[C@H]4[C@@](C)(CCC[C@@]4(C)C(=O)O[C@@H]4O[C@H](CO)[C@@H](O)[C@H](O)[C@H]4O)[C@@H]2CC[C@]1(O[C@@H]1O[C@H](CO)[C@@H](O)[C@H](O[C@@H]2O[C@H](CO)[C@@H](O)[C@H](O)[C@H]2O)[C@H]1O[C@@H]1O[C@H](CO)[C@@H](O)[C@H](O)[C@H]1O)C3` [Reb A, Rebaudioside A], for which the “Taste Properties” value in the assay on one experienced panelist (4° C.) is listed as “more sweet”. Also, the “Taste Properties” value with one experienced panelist (room temperature) is “Delayed sweetness onset, significant lingering sweet”. Moreover, in the assay with panelists, the “Overall evaluation: Satisfactory, number of panelists” value (“Overall evaluation: Satisfactory” for short) is given as “(1 of 20)”; the “Quality of sweet taste (comment)” value is recorded as “Bitter”; the “Quality of sweet taste: number of panelists giving the comment” value (shortened to “Quality … of panelists giving the comment”) is “(20 of 20)”; the “Astringent taste: number of panelists detected the attribute” value was found to be 20. Besides, in the assay with panelists, the “Bitter taste: number of panelists detected the attribute” value is on record as 20, the “Licorice taste: number of panelists detected the attribute” value was determined as 20 and the “Sweet Aftertaste: number of panelists detected the attribute” value turned out to be 20.

Regarding `C=C1C[C@@]23CC[C@H]4[C@@](C)(CCC[C@@]4(C)C(=O)O[C@@H]4O[C@H](CO)[C@@H](O)[C@H](O)[C@H]4O[C@@H]4O[C@H](CO)[C@@H](O)[C@H](O)[C@H]4O)[C@@H]2CC[C@]1(O[C@@H]1O[C@H](CO)[C@@H](O)[C@H](O[C@@H]2O[C@H](CO)[C@@H](O)[C@H](O)[C@H]2O)[C@H]1O[C@@H]1O[C@H](CO)[C@@H](O)[C@H](O)[C@H]1O)C3` [Reb D, Rebaudioside D], the “Taste Properties” value in the assay with one experienced panelist (4° C.) is “more sweet”. In the assay on panelists, the “Overall evaluation: Satisfactory” value was “(11 of 20)”; the “Quality of sweet taste (comment)” value is given as “Clean”; the “Quality … of panelists giving the comment” value is 9 of 20; the “Astringent taste: number of panelists detected the attribute” value came out at 3. For the same molecule, in the assay on panelists, the “Bitter taste: number of panelists detected the attribute” value is 3, the “Licorice taste: number of panelists detected the attribute” value turned out to be 2 and the “Sweet Aftertaste: number of panelists detected the attribute” value came to 5.

In the case of `C=C1C[C@@]23CC[C@H]4[C@@](C)(CCC[C@@]4(C)C(=O)O[C@@H]4O[C@H](CO)[C@@H](O)[C@H](O)[C@H]4O)[C@@H]2CC[C@]1(O[C@@H]1O[C@H](CO)[C@@H](O)[C@H](O)[C@H]1O[C@@H]1O[C@H](CO)[C@@H](O)[C@H](O)[C@H]1O)C3` [Stevioside], in the assay with panelists, the “Quality of sweet taste (comment)” value is listed as “Bitter” and the “Quality … of panelists giving the comment” value is listed as “(20 of 20)”.

Turning to `OC[C@H]1O[C@@](CO)(O[C@H]2O[C@H](CO)[C@@H](O)[C@H](O)[C@H]2O)[C@@H](O)[C@@H]1O` [Sucrose], in the assay with panelists, the “Overall evaluation: Satisfactory” value is on record as “(20 of 20)”; the “Quality of sweet taste (comment)” value is on record as “Clean”; the “Quality … of panelists giving the comment” value is 20 of 20.
